In brackets after ≈: the same amount, converted by molar mass. Where a name gives a salt, the structure may show the parent alone.
Columns and labels:
Guinea pig atrium = experiment: Positive inotropic activity (contractility of isolated guinea pig atrium); assay type: cell-based; conditions: isolated left and right atria, Ringer's solution, 32° C., contractility recorded 7 to 10 minutes; for EC50: Cavia porcellus
Experimental: Guineapigs of both sexes and weighing 400 g were sacrificed, and the heart was removed and placed in Ringer's solution at room temperature. Both the left and the right atria were then isolated and fixed in an organ holder, and the preparation was placed in an organ bath containing Ringer's solution and maintained at a temperature of 32° C. Carbogen (95% O2 and 5% CO2) was then bubbled through the organ bath. The compound to be tested is dissolved directly in water together with a stoichiometric amount of 0.1N HCL or a salt thereof to give a solution of known concentration and the latter is added to the bath. The contractility of the atrium is recorded for 7 to 10 minutes on a Nihon Kohden 4-channel pen recorder with an isometric strain gage. The activity is expressed on the basis of the resulting data as the EC50.

conscious rabbits = experiment: Reduction in intraocular pressure in conscious rabbits; assay type: in vivo; conditions: rabbit, instilled into one eye
Experimental: For this experiment rabbits of both sexes and weighing 2 to 3 kg are used. The intraocular pressure (IOP) is measured with a Schioetz tonometer after corneal anesthesia with 2% strength novocaine solution. […] […] The IOP is measured at defined time intervals, i.e. after 0.5, 1, 2, 3, 4 and 5 hours. The percentage reduction in the IOP is calculated using the baseline value.

cats = experiment: Antihypertensive effect: blood pressure in anesthetized cats; assay type: in vivo; conditions: anesthetized cat, i.v., 1 mg/kg
Experimental: Cats of both sexes and weighing 3 to 4 kg were anesthetized with ether and maintained under chloralose anesthesia (70 mg/kg i.v.). Cannulas were placed in the femoral artery and in the femoral vein to record the blood pressure and to administer the medicament, respectively. The blood pressure in the femoral artery was recorded using a Statham P 23 Db pressure transducer on a Nihon-Kohden pen recorder for physiological purposes. The compound to be tested was dissolved, if a salt, in distilled water, otherwise in propylene glycol and administered intravenously. The fall in blood pressure and the duration of the hypotensive activity were determined.

SMILES | EC50 (Guinea pig atrium) [µg/mL] | also measured
C=C[C@@]1(C)CC(=O)[C@@]2(O)[C@](C)(O1)[C@@H](OC(=O)N1CCN(C)CC1)C=C1C(C)(C)CC[C@H](O)[C@@]12C | 0.24 (≈ 0.504 µM) | –
C=C[C@@]1(C)CC(=O)[C@@]2(O)[C@](C)(O1)[C@@H](OC(=O)CN1CC(C)OC(C)C1)C=C1C(C)(C)CC[C@H](O)[C@@]12C (some centres unmarked) | 0.079 (≈ 0.156 µM) | –
C=C[C@@]1(C)CC(=O)[C@@]2(O)[C@](C)(O1)[C@@H](OC(=O)CCN1CCCCC1)C=C1C(C)(C)CC[C@H](O)[C@@]12C | 0.28 (≈ 0.572 µM) | –
C=C[C@@]1(C)CC(=O)[C@@]2(O)[C@](C)(O1)[C@@H](OC(=O)CCN1CCN(C)CC1)C=C1C(C)(C)CC[C@H](O)[C@@]12C | 0.3 (≈ 0.594 µM) | –
C=C[C@@]1(C)CC(=O)[C@@]2(O)[C@](C)(O1)[C@@H](OC(=O)CCCN1CCN(C)CC1)C=C1C(C)(C)CC[C@H](O)[C@@]12C | 0.12 (≈ 0.231 µM) | –
C=C[C@@]1(C)CC(=O)[C@@]2(O)[C@](C)(O1)[C@@H](OC(=O)CCCCN1CCOCC1)C=C1C(C)(C)CC[C@H](O)[C@@]12C | 0.17 (≈ 0.327 µM) | –
C=C[C@@]1(C)CC(=O)[C@@]2(O)[C@](C)(O1)[C@@H](OC(=O)CN1CCSCC1)C=C1C(C)(C)CC[C@H](O)[C@@]12C | 0.14 (≈ 0.284 µM) | –
C=C[C@@]1(C)CC(=O)[C@@]2(O)[C@](C)(O1)[C@@H](OC(=O)CN1CCC(O)(c3ccccc3)CC1)C=C1C(C)(C)CC[C@H](O)[C@@]12C | 0.3 (≈ 0.528 µM) | –
C=C[C@@]1(C)CC(=O)[C@@]2(O)[C@](C)(O1)[C@@H](OC(=O)COC(=O)CN1CCCCC1)C=C1C(C)(C)CC[C@H](O)[C@@]12C | 3 (≈ 5.62 µM) | –
C=C[C@@]1(C)CC(=O)[C@@]2(O)[C@](C)(O1)[C@@H](OC(=O)N1CCCC1)C=C1C(C)(C)CC[C@H](O)[C@@]12C | – | % decrease in IOD (conscious rabbits; dose percentage 1.00): 26.0%; Duration (decrease in IOD) (conscious rabbits; dose percentage 1.00): 240 min
C=C[C@@]1(C)CC(=O)[C@@]2(O)[C@](C)(O1)[C@@H](OC(=O)CN1CCOCC1)C=C1C(C)(C)CC[C@H](O)[C@@]12C | – | % decrease in IOD (conscious rabbits; dose percentage 2.00): 20.3%; Duration (decrease in IOD) (conscious rabbits; dose percentage 2.00): 360 min
C=C[C@@]1(C)CC(=O)[C@@]2(O)[C@](C)(O1)[C@@H](OC(=O)CN1CCCC1)C=C1C(C)(C)CC[C@H](O)[C@@]12C | – | Decrease in BP (cats): 40 mm Hg; Duration (hypotensive activity) (cats): 90 min
C=C[C@@]1(C)CC(=O)[C@@]2(O)[C@](C)(O1)[C@@H](OC(=O)CN(CC)CC)C=C1C(C)(C)CC[C@H](O)[C@@]12C [COCH2 N(C2 H5)2, 7β-Diethylaminoacetoxy-1α,9α-dihydroxy-8,13-epoxy-labd-5,14-dien-11-one hydrochloride] | 0.72 | Decrease in BP (cats): 36 mm Hg; Duration (hypotensive activity) (cats): > 60 min
C=C[C@@]1(C)CC(=O)[C@@]2(O)[C@](C)(O1)[C@@H](OC(=O)COC=O)C=C1C(C)(C)CC[C@H](O)[C@@]12C [COCH2 OCHO, 1α,9α-dihydroxy-8,13-epoxy-7β-formyloxyacetoxylabda-5,14-dien-11-one] | 0.024 (≈ 0.055 µM) | –
C=C[C@@]1(C)CC(=O)[C@@]2(O)[C@](C)(O1)[C@@H](OC(=O)COC(=O)CN(CC)CC)C=C1C(C)(C)CC[C@H](O)[C@@]12C [COCH2 OCOCH2 NEt2, hydrochloride hydrate] | 0.018 | –
C=C[C@@]1(C)CC(=O)[C@@]2(O)[C@](C)(O1)[C@@H](OC(=O)COC(=O)CN(C)C)C=C1C(C)(C)CC[C@H](O)[C@@]12C [COCH2 OCOCH2 NMe2, 1α,9α-Dihydroxy-7β-(N,N-dimethylaminoacetoxy)acetoxy-8,13-epoxy-labd-5,14-dien-11-one hydrochloride] | 0.8 | –
C=C[C@@]1(C)CC(=O)[C@@]2(O)[C@](C)(O1)[C@@H](OC(N)=O)C=C1C(C)(C)CC[C@H](O)[C@@]12C [CONH2, 7β-Amino-carbonyloxy-1α,9α-dihydroxy-8,13-epoxy-labd-5,14-dien-11-one] | – | % decrease in IOD (conscious rabbits; dose percentage 1.00): 30.0%; Duration (decrease in IOD) (conscious rabbits; dose percentage 1.00): > 360 min
C=C[C@@]1(C)CC(=O)[C@@]2(O)[C@](C)(O1)[C@@H](OC(=O)NCCCC)C=C1C(C)(C)CC[C@H](O)[C@@]12C [CONH(CH2)3 CH3] | – | % decrease in IOD (conscious rabbits; dose percentage 1.00): 27.0%; Duration (decrease in IOD) (conscious rabbits; dose percentage 1.00): > 360 min
C=C[C@@]1(C)CC(=O)[C@@]2(O)[C@](C)(O1)[C@@H](OC(=O)[C@H](O)CO)C=C1C(C)(C)CC[C@H](O)[C@@]12C [drawing 101] | – | % decrease in IOD (conscious rabbits; dose percentage 0.25): 35.0%; Duration (decrease in IOD) (conscious rabbits; dose percentage 0.25): > 360 min
C=C[C@@]1(C)CC(=O)[C@@]2(O)[C@](C)(O1)[C@@H](OC(=O)CN1CCN(C)CC1)C=C1C(C)(C)CC[C@H](O)[C@@]12C [drawing 104] | – | % decrease in IOD (conscious rabbits; dose percentage 2.00): 23.9%; Duration (decrease in IOD) (conscious rabbits; dose percentage 2.00): 360 min
C=C[C@@]1(C)CC(=O)[C@@]2(O)[C@](C)(O1)[C@@H](OC(=O)N1CCOCC1)C=C1C(C)(C)CC[C@H](O)[C@@]12C [drawing 106] | – | Decrease in BP (cats): 32 mm Hg; Duration (hypotensive activity) (cats): 45 min
C=C[C@@]1(C)CC(=O)[C@@]2(O)[C@](C)(O1)[C@@H](OC(=O)CN1CCCCC1)C=C1C(C)(C)CC[C@H](O)[C@@]12C [drawing 107] | – | Decrease in BP (cats): 30 mm Hg; Duration (hypotensive activity) (cats): 90 min
C=C[C@@]1(C)CC(=O)[C@@]2(O)[C@](C)(O1)[C@@H](OC(=O)CN1CCN(C)CC1)C=C1C(C)(C)CC[C@H](O)[C@@]12C [drawing 108] | – | Decrease in BP (cats): 40 mm Hg; Duration (hypotensive activity) (cats): > 120 min

The next lines start with results.

EC50 (Guinea pig atrium) [µg/mL] | SMILES | also measured
1 (≈ 1.87 µM) | C=C[C@@]1(C)CC(=O)[C@@]2(O)[C@](C)(O1)[C@@H](OC(=O)COC(=O)CN1CCOCC1)C=C1C(C)(C)CC[C@H](O)[C@@]12C | –
0.72 (≈ 1.28 µM) | C=C[C@@]1(C)CC(=O)[C@@]2(O)[C@](C)(O1)[C@@H](OC(=O)COC(=O)CN1CC(C)OC(C)C1)C=C1C(C)(C)CC[C@H](O)[C@@]12C (some centres unmarked) | –
0.44 (≈ 0.802 µM) | C=C[C@@]1(C)CC(=O)[C@@]2(O)[C@](C)(O1)[C@@H](OC(=O)COC(=O)CN1CCN(C)CC1)C=C1C(C)(C)CC[C@H](O)[C@@]12C | –
1 (≈ 1.78 µM) | C=C[C@@]1(C)CC(=O)[C@@]2(O)[C@](C)(O1)[C@@H](OC(=O)COC(=O)CCN1CCN(C)CC1)C=C1C(C)(C)CC[C@H](O)[C@@]12C | –
0.058 (≈ 0.125 µM) | C=C[C@@]1(C)CC(=O)[C@@]2(O)[C@](C)(O1)[C@@H](OC(=O)CCCN(C)C)C=C1C(C)(C)CC[C@H](O)[C@@]12C [CO(CH2)3 N(CH3)2, 1α,9α-Dihydroxy-7β-(4-N,N-dimethylaminobutyryloxy)8,13-epoxylabda-5,14-dien-11-one] | –
0.037 (≈ 0.0753 µM) | C=C[C@@]1(C)CC(=O)[C@@]2(O)[C@](C)(O1)[C@@H](OC(=O)CCCN(CC)CC)C=C1C(C)(C)CC[C@H](O)[C@@]12C [CO(CH2)3 NEt2, 1α,9α-Dihydroxy-7β-(4-diethylaminobutyryloxy)-8,13-epoxylabda-5,14-dien-11-one] | –
0.755 (≈ 1.58 µM) | C=C[C@@]1(C)CC(=O)[C@@]2(O)[C@](C)(O1)[C@@H](OC(=O)CCCCN(C)C)C=C1C(C)(C)CC[C@H](O)[C@@]12C [CO(CH2)4 NMe2, 1α,9α-Dihydroxy-7β-(5-dimethylaminovaleryloxy)-8,13-epoxylabda-5,14-dien-11-one] | Guinea pig atrium EC50 (Guinea pig atrium): 0.615 µg/mL
0.028 (≈ 0.0713 µM) | C=C[C@@]1(C)CC(=O)[C@@]2(O)[C@](C)(O1)[C@@H](OC(C)=O)C=C1C(C)(C)CC[C@H](O)[C@@]12C [COCH3] | –
0.051 (≈ 0.125 µM) | C=C[C@@]1(C)CC(=O)[C@@]2(O)[C@](C)(O1)[C@@H](OC(=O)NC)C=C1C(C)(C)CC[C@H](O)[C@@]12C [CONHCH3] | % decrease in IOD (conscious rabbits; dose percentage 1.00): 24.0%; Duration (decrease in IOD) (conscious rabbits; dose percentage 1.00): > 360 min
0.0008 (≈ 0.00182 µM) | C=C[C@@]1(C)CC(=O)[C@@]2(O)[C@](C)(O1)[C@@H](OC(=O)[C@H](O)CO)C=C1C(C)(C)CC[C@H](O)[C@@]12C [drawing 82] | –
0.3 (≈ 0.647 µM) | C=C[C@@]1(C)CC(=O)[C@@]2(O)[C@](C)(O1)[C@@H](OC(=O)N1CCOCC1)C=C1C(C)(C)CC[C@H](O)[C@@]12C [drawing 83] | –
0.072 (≈ 0.151 µM) | C=C[C@@]1(C)CC(=O)[C@@]2(O)[C@](C)(O1)[C@@H](OC(=O)CN1CCCCC1)C=C1C(C)(C)CC[C@H](O)[C@@]12C [drawing 92] | –
